From ChEMBL document CHEMBL1201862, “PubChem BioAssay data set” (2004)
The source made the active and inactive calls.

Key:
[1] = target: T1, Runt-related transcription factor 1/Core-binding factor subunit beta (Homo sapiens, UniProt Q01196+Q13951); assay: Runt domain/CBFb-SMMHC interaction disruptors – biochemical, TR-FRET (AID 1438); format: protein assay
[2] = target: T1, Runt-related transcription factor 1/Core-binding factor subunit beta; assay: disruptors of Runt domain/CBFb-SMMHC interaction – biochemical, FRET, Cerulean-Runt, Venus-CBFb-SMMHC, uHTS, […] (AID 1434); format: protein assay
[3] = target: T2, Mitochondrial peptide methionine sulfoxide reductase (Bos taurus, UniProt P54149); assay: Absorbance-based biochemical high throughput dose response assay for activators of Methionine sulfoxide reductase A (MsrA).; format: functional
T2 sequence (P54149 whole entry): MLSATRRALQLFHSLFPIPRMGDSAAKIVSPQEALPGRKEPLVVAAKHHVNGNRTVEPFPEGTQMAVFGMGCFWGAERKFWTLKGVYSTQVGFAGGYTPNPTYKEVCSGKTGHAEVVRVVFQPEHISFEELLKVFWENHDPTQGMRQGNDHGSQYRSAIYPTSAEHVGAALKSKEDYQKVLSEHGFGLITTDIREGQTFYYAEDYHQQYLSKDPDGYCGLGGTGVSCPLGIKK

Hexokinase = Hexokinase (Trypanosoma brucei, UniProt Q38C41); assay: Confirmation assay for inhibitors of Trypanosoma brucei hexokinase 1-Analogue-first series. [Related pubchem assays (depositor defined):AID1430, AID1632, AID2516, AID2560, AID2579, AID2600, AID449725, AID492951]; format: functional
Sequence of Hexokinase (Q38C41 whole entry): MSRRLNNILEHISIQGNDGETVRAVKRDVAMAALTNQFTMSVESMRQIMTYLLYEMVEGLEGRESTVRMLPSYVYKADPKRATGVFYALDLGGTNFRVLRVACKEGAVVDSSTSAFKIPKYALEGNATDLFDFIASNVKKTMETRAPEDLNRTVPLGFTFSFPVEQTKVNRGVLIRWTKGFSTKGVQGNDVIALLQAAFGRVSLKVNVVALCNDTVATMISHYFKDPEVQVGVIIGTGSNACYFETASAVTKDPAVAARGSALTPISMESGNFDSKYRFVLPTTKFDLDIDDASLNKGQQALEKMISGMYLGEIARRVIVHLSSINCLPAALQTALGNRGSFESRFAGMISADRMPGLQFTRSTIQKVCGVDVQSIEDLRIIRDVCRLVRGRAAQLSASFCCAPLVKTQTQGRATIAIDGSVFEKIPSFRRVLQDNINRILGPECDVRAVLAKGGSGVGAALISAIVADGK

[4] = target: Glucose-6-phosphate 1-dehydrogenase (Homo sapiens, UniProt P11413); assay: inhibition of Homo sapiens G6PD, dose series – biochemical, fluorescence, selectivity assay for P. falciparum G6PD inhibitor project, dose response (AID 504792); format: functional
Sequence of Glucose-6-phosphate 1-dehydrogenase (P11413 whole entry): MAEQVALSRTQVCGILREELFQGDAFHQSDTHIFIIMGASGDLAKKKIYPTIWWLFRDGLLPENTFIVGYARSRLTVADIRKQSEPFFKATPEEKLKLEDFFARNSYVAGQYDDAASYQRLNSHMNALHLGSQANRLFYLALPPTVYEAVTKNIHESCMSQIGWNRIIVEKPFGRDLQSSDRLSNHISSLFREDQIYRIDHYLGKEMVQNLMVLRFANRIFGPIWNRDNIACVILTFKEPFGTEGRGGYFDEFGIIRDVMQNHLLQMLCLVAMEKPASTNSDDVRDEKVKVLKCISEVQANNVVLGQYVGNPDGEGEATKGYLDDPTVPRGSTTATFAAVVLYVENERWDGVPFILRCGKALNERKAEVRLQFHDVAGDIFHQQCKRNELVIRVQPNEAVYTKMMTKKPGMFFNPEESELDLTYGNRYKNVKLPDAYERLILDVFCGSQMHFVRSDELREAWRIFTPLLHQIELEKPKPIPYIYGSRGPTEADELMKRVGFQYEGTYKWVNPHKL

Hexokinase-1 = target: T3, Hexokinase-1 (Homo sapiens, UniProt P19367); assay: HK1 enzyme activation by HKDC1 hits – biochemical, selectivity assay for HKDC1 activator project, dose response (AID 504762); format: functional
T3 sequence (P19367 whole entry): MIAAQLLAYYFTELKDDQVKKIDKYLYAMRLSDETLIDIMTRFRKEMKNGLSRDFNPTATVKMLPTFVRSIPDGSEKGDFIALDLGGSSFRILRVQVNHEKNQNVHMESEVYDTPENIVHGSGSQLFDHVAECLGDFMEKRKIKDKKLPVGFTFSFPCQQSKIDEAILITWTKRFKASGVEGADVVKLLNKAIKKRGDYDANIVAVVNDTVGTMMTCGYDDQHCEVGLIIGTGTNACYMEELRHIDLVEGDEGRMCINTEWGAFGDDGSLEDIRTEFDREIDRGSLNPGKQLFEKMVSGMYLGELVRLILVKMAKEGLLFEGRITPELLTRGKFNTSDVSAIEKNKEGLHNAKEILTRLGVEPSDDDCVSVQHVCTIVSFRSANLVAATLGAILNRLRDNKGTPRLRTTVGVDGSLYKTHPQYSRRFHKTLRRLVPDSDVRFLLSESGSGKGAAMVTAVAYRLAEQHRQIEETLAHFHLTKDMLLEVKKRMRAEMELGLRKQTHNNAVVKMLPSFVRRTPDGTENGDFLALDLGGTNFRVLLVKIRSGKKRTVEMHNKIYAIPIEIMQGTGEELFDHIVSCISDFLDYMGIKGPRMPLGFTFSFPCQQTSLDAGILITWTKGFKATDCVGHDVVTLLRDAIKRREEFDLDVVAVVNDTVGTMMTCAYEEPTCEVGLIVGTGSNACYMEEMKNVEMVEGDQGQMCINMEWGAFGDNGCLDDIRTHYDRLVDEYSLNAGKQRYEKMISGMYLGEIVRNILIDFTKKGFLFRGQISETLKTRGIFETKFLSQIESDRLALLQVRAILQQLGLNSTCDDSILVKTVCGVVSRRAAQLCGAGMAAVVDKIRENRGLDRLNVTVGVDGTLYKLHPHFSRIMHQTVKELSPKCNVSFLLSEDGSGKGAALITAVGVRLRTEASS

[5] = target: Heat shock protein HSP 90-alpha (Homo sapiens, UniProt P07900); format: functional, organism-based
Hexokinase HKDC1 = target: T4, Hexokinase HKDC1 (Homo sapiens, UniProt Q2TB90); assay: activation of HKDC1 glucose phosphorylation – biochemical, W721R variant, dose response (AID 504730); format: functional
T4 sequence (Q2TB90 whole entry): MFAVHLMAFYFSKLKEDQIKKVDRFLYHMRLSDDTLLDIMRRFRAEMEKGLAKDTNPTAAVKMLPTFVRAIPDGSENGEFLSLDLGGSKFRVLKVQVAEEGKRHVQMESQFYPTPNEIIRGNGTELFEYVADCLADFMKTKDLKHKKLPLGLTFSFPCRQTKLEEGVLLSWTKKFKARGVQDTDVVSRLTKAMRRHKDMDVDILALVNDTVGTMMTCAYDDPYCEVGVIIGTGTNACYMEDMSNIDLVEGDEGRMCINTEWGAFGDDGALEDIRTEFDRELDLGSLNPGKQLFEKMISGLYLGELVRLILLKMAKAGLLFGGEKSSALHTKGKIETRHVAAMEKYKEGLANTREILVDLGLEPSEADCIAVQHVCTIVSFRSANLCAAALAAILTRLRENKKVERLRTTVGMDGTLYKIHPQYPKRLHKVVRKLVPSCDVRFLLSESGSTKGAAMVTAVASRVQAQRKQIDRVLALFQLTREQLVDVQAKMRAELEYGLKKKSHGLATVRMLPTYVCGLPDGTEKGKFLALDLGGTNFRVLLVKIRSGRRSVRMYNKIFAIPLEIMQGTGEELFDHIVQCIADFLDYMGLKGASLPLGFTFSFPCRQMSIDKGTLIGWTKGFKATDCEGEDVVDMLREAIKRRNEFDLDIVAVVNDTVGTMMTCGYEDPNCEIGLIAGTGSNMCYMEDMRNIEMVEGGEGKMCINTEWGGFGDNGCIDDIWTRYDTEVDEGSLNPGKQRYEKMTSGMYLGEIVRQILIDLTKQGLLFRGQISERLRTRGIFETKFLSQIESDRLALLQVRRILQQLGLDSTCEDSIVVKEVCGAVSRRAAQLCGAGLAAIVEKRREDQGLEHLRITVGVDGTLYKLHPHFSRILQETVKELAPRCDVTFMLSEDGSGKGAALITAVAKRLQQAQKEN

[6] = reduction of Shn3 3'UTR-driven luciferase in osteoblasts – cell-based, Clone20 osteoblasts, firefly luciferase, cherry-picked, dose response (AID 624132); format: functional;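 further: firefly luciferase luminescence from reporter carrying the Shn3 3'UTR in osteoblasts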
Nonstructural protein 1 = Nonstructural protein 1 (Influenza A virus, UniProt Q194T2); format: functional, Influenza A virus (A/California/07/2009(H1N1))
Sequence of Nonstructural protein 1 (Q194T2 whole entry): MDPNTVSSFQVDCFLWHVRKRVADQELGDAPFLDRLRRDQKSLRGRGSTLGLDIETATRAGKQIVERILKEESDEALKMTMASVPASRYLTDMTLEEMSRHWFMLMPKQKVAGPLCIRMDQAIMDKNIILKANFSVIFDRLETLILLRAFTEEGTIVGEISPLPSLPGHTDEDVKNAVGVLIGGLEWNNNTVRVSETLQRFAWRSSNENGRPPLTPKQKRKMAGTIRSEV

[7] = target: Alkaline phosphatase, placental type (Homo sapiens, UniProt P05187); assay: human placental alkaline phosphatase inhibition – biochemical, luminescence, confirmation (AID 1512); format: functional
Sequence of Alkaline phosphatase, placental type (P05187 whole entry): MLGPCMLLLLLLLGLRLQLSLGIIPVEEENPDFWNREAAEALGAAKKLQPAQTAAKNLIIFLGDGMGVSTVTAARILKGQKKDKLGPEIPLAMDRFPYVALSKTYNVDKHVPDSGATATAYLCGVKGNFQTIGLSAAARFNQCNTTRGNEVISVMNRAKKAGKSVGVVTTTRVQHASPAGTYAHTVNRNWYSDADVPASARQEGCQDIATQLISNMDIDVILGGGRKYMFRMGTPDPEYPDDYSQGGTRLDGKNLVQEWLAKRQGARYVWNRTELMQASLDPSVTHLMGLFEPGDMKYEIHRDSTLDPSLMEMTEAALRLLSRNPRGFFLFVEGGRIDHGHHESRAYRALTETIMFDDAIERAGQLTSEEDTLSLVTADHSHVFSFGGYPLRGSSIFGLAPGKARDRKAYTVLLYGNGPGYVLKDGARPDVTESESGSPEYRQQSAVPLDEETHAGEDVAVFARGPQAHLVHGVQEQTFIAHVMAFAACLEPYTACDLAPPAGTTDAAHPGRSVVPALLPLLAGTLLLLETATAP

[8] = target: T5, Alkaline phosphatase, tissue-nonspecific isozyme (Homo sapiens, UniProt P05186); assay: potency against alkaline phosphatase TNAP – biochemical, luminescent, dose response, SAR follow-up (AID 1056)
T5 sequence (P05186 whole entry): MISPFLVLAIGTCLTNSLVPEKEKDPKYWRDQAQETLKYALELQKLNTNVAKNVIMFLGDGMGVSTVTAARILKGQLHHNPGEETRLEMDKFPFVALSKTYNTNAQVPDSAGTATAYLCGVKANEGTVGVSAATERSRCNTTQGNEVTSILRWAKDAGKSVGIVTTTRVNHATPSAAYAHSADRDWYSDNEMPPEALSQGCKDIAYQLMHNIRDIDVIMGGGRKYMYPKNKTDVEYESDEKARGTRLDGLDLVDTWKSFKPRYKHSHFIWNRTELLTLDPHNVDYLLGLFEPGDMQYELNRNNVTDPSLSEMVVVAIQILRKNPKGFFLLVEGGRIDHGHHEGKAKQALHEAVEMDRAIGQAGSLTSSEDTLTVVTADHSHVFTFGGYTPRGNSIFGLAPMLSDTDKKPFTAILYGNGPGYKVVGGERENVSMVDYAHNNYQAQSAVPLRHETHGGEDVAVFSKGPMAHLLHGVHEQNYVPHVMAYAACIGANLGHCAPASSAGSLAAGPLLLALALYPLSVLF

Cannabinoid receptor 2 [9] = target: T6, Cannabinoid receptor 2 (Homo sapiens, UniProt P34972); assay: SAR analysis of antagonists of the Cannabinoid Receptor 2 using an Image-Based Assay - Set 3. [Related pubchem assays (depositor defined):AID2013, AID2026]; format: functional
T6 sequence (P34972 whole entry): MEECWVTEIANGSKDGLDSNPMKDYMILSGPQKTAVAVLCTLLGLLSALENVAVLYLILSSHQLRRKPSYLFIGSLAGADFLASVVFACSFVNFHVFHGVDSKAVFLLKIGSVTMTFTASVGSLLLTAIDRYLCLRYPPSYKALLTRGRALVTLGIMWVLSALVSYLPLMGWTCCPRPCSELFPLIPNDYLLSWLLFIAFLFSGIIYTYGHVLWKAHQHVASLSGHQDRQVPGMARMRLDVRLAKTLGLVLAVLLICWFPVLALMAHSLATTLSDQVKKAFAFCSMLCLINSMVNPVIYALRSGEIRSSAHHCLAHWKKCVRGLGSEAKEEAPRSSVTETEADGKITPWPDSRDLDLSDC

Cannabinoid receptor 2 [10] = target: T6, Cannabinoid receptor 2; assay: SAR analysis of agonists of the Cannabinoid Receptor 2 using an Image-Based Assay - Set 3. [Related pubchem assays (depositor defined):AID2013, AID2026]; format: functional
Cannabinoid receptor 2 [11] = target: T6, Cannabinoid receptor 2; assay: SAR analysis of antagonists of the Cannabinoid Receptor 2 using an Image-Based Assay. [Related pubchem assays (depositor defined):AID2013, AID2026]; format: functional
Cannabinoid receptor 1 [12] = target: T7, Cannabinoid receptor 1 (Homo sapiens, UniProt P21554); assay: SAR analysis of antagonists of the Cannabinoid Receptor 1 using an Image-Based Assay - Set 4. [Related pubchem assays (depositor defined):AID2013, AID2026]; format: functional
T7 sequence (P21554 whole entry): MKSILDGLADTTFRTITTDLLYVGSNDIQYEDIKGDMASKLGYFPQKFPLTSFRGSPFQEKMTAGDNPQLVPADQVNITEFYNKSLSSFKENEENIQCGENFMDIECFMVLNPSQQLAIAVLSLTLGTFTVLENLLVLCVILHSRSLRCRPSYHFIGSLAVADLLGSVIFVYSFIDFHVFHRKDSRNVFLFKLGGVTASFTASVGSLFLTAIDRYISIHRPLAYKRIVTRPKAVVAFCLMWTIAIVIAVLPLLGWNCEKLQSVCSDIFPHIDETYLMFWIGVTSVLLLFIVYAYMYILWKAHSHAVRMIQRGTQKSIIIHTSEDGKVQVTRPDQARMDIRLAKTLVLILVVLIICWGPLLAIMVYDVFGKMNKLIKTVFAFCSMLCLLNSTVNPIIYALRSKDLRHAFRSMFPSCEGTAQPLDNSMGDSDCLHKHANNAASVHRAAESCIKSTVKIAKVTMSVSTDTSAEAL

[13] = target: T8, G-protein coupled receptor 55 (Homo sapiens, UniProt Q9Y2T6); assay: inhibition of LPI-stimulated GPR55 beta-arrestin translocation – imaging, U2OS, beta-arrestin-GFP, LPI agonist, primary screen (AID 2013); format: functional;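 further: antagonist potency measured as reduced agonist-driven arrestin aggregation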
T8 sequence (Q9Y2T6 whole entry): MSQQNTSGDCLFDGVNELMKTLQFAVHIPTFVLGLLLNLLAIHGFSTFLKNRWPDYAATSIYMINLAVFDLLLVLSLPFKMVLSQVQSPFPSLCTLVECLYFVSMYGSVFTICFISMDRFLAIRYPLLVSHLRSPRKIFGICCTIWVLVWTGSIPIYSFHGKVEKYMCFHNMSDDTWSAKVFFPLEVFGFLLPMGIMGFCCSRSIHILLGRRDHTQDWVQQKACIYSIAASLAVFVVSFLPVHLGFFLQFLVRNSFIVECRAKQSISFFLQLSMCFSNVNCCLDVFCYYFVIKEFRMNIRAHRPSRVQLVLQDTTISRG

[14] = target: T8, G-protein coupled receptor 55; assay: blockade of LPI-induced GPR55 arrestin translocation – imaging, U2OS, beta-arrestin-GFP, LPI agonist, set 2, SAR follow-up (AID 2820); format: functional
[15] = target: T8, G-protein coupled receptor 55; assay: SAR Analysis of Selective Antagonists of GPR55 using an Image-Based Assay - Set 4. [Related pubchem assays (depositor defined):AID2013, AID2026]; format: functional
[16] = target: T9, G-protein coupled receptor 35 (Homo sapiens, UniProt Q9HC97); assay: SAR analysis of Agonists of the GPR35 Receptor using an Image-Based Assay - Set 2. [Related pubchem assays (depositor defined):AID2013, AID2026]; format: functional
T9 sequence (Q9HC97 whole entry): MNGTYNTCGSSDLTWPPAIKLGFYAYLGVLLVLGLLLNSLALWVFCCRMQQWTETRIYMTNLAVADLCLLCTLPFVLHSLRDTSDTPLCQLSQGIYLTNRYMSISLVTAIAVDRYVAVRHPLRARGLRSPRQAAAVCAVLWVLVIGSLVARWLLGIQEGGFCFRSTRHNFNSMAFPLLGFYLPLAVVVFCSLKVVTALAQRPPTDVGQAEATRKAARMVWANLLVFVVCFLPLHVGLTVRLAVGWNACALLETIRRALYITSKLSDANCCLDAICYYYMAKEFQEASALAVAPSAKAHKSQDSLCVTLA

[17] = target: T9, G-protein coupled receptor 35; assay: SAR analysis of Antagonists of the GPR35 Receptor using an Image-Based Assay - Set 3. [Related pubchem assays (depositor defined):AID2013, AID2026]; format: functional
Cannabinoid receptor 1 [18] = target: T7, Cannabinoid receptor 1; assay: SAR analysis of antagonists of the Cannabinoid Receptor 1 using an Image-Based Assay - Set 2. [Related pubchem assays (depositor defined):AID2013, AID2026]; format: functional
Cannabinoid receptor 1 [19] = target: T7, Cannabinoid receptor 1; assay: SAR analysis of agonists of the Cannabinoid Receptor 1 using an Image-Based Assay - Set 2. [Related pubchem assays (depositor defined):AID2013, AID2026]; format: functional
Cannabinoid receptor 2 [20] = target: T6, Cannabinoid receptor 2; assay: SAR analysis of agonists of the Cannabinoid Receptor 2 using an Image-Based Assay. [Related pubchem assays (depositor defined):AID2013, AID2026]; format: functional

T1 sequence (Q01196 whole entry, the tested form may be a part): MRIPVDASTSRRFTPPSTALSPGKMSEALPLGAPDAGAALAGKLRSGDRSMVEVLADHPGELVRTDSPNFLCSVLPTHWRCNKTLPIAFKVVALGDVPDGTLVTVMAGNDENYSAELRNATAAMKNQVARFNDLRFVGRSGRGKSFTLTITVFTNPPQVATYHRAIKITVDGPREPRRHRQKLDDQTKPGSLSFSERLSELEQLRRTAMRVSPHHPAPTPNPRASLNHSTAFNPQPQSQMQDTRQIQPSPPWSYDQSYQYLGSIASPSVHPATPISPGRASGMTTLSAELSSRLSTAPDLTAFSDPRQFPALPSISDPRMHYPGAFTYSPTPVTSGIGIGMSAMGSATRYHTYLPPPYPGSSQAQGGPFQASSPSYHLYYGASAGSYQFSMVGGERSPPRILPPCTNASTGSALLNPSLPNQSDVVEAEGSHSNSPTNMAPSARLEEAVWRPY
T1 sequence (Q13951 whole entry, the tested form may be a part): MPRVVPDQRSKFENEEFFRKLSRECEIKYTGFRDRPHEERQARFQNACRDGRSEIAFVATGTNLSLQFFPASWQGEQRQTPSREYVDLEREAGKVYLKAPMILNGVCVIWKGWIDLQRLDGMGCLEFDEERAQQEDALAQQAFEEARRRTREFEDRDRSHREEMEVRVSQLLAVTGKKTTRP

Question: What does the source list for `COc1ccc2o/c(=N\O)c(C(=O)Nc3ccccc3OC)cc2c1`?
Answer: IC50 [1]: 60.5 µM (inactive); IC50 [2]: 59 µM (inactive)

Question: Which EC50 [3] does the source give for `N#Cc1ccc2sn(-c3ccccc3)c(=O)c2c1` here?
Answer: The EC50 was > 104 µM (inactive).

Question: What about the IC50 (Hexokinase) of the same compound?
Answer: Its IC50 is 2.97 µM (active).

Question: And the IC50 [4]?
Answer: Its IC50 is 14.1 µM (active).

Question: For `CC(N/N=C(\S)N1CCN(c2ccccn2)CC1)c1nccc2ccccc12` (stereo unspecified), which EC50 (Hexokinase-1) is on record?
Answer: The EC50 was > 80 µM (inactive).

Question: What about the AC50 [5] of the same compound?
Answer: Its AC50 is 2.58 µM (active).

Question: And the EC50 (Hexokinase HKDC1)?
Answer: The EC50 was 2.19 µM (active).

Question: What about the AC50 [6] of the same compound?
Answer: Its AC50 is < 0.26 µM (active).

Question: What about the IC50 (Nonstructural protein 1) of the same compound?
Answer: Its IC50 is 2.43 µM (active).

Question: Which IC50 [7] does the source give for `Cc1ccc(-c2nnc(SCC(=O)c3ccc(O)c(O)c3)n2-c2ccc(Cl)cc2)cc1` here?
Answer: The IC50 was 15.3 µM (active).

Question: What about the IC50 [8] of the same compound?
Answer: The IC50 was > 100 µM (inactive).

Question: Which IC50 (Cannabinoid receptor 2 [9]) does the source give for `CCOC(=O)c1cc2c(=O)n3ccccc3nc2n(Cc2ccccc2)c1=N` here?
Answer: Its IC50 is > 32 µM (inactive).

Question: And the EC50 (Cannabinoid receptor 2 [10])?
Answer: Its EC50 is > 32 µM (inactive).

Question: What about the IC50 (Cannabinoid receptor 2 [11]) of the same compound?
Answer: Its IC50 is > 32 µM (inactive).

Question: What about the IC50 (Cannabinoid receptor 1 [12]) of the same compound?
Answer: The IC50 was 0.069 µM (active).

Question: What about the IC50 [13] of the same compound?
Answer: Its IC50 is < 0.5 µM (active).

Question: And the IC50 [14]?
Answer: The IC50 was 0.878 µM (active).

Question: And the IC50 [15]?
Answer: Its IC50 is > 32 µM (inactive).

Question: And the EC50 [16]?
Answer: The EC50 was > 32 µM (inactive).

Question: And the IC50 [17]?
Answer: Its IC50 is > 32 µM (inactive).

Question: And the IC50 (Cannabinoid receptor 1 [18])?
Answer: Its IC50 is > 32 µM (inactive).

Question: What about the EC50 (Cannabinoid receptor 1 [19]) of the same compound?
Answer: The EC50 was > 32 µM (inactive).

Question: And the EC50 (Cannabinoid receptor 2 [20])?
Answer: Its EC50 is > 32 µM (inactive).

Question: With `O=C(NC1(C(F)(F)F)Oc2ccccc2O1)c1ccc(Cl)cc1` as the compound, how does the IC50 [7] read?
Answer: Its IC50 is > 100 µM (inactive).

Question: And the IC50 [8]?
Answer: Its IC50 is > 100 µM (inactive).
